Measured values from patent US12704504B2, “Derivatization of beta-lactam antibiotics as calibrators/ISTD in massspec measurements” (Roche Diagnostics Operations, Inc., priority 2019, dated 2026).

Assay: Stability in water at room temperature, LC-MS/MS peak areas over 16 h
Type: physicochemical
Conditions: 5 μg/mL, 0-16 h
Description: The stability of native Piperacillin as well as its hydrolyzed forms was investigated (compounds 5, 9a, 9b and 10, respectively. From the hydrolysis pathway of Piperacillin (compound 5, see schematic drawing in FIG. 1) it is obvious that this compound hydrolyzed both on the piperazin ring and the lactam moiety, only one of both compounds is monitored to account for the loss or degradation of native Piperacillin (compound 5)). To this end, these compounds were freshly weighed and dissolved in water at a concentration of 1 mg/mL by rolling or stirring for 15 minutes at room temperature. Subsequently, these compounds were diluted to 5 μg/mL and measured with a suitable LC-MS/MS method at timepoints 0, 2, 4, 6, 8 and 16 h. For this, a Sunshell C18 (2.6 μm, 2.1 mm×50 mm) column with Solvent A: water with 0.1% HCOOH and Solvent B: CH3CN with 0.1% HCOOH and a flow of 0.6 mL per minute were used on an Agilent Infinity II multisampler/Pump system connected to an AB Sciex 6500+MS. The peaks were integrated using MultiQuant software and the areas of these peaks depicted in the graphs in FIGS. 2A and 2B.
The stability of double butylamide variants of Piperacillin (compound 7, see FIG. 4) was investigated at 2 MRMs using the identical protocol as in Examples 1.

## CCN1CCN(C(=O)N[C@@H](C(=O)N[C@@H]2C(=O)N3[C@@H]2SC(C)(C)[C@@H]3C(=O)O)c2ccccc2)C(=O)C1=O [Piperacillin]
  course of obtained peak-areas over time: decreasing
